The nature of data set [1]: HPLC-UV-CAD (QTOF LC-MS) extractables of stoppers: 50/50 IPA/Water extract. It is filed as physicochemical. As to conditions: stopper extract, reflux 12 hours, relative quantitation against standard (12-HDA, Irgacure 184 or Oleamide), average of duplicate injections.
A short description of data set [2]: HPLC-UV-CAD (QTOF LC-MS) extractables of stoppers: pH 9.4 extract. It is filed as physicochemical. As to conditions: stopper extract, water pH 9.4, reflux 20 hours; relative quantitation against standard (12-HDA, Irgacure 184 or Oleamide); average of duplicate injections.
The conditions of data set [3]: for ICP-MS Results (ppb) Glass vials (2% HNO3): glass vials extracted in 2% HNO3, 60° C.; for ICP-MS Results (ppb) Glass vials (2% HNO3) / ICP-MS Results (ppb) Stoppers (2% HNO3): ~24 h; for ICP-MS Results (ppb) Stoppers (2% HNO3): stoppers extracted in 2% HNO3, 60° C.
The mark [4] stands for this setting: 2.5 ppb = lowest calibration concentration.
[5] abbreviates: stoppers, refluxed aqueous solution pH 3.4, 2.5 ppb = lowest calibration concentration.

Like-named read-outs stand apart in the source and are kept apart here. A value given as a limit tells only on which side of the number the result lay.

For `C1COCCOCCSSCCOCCO1`, in data set [1], the “Est. Conc. of extractable (possible identification), HPLC-UV-CAD” value (from here on “Est. Conc. of extractable”) was under 0.5 µg/mL.
In the case of `Cc1cc(C(C)(C)C)cc(S(=O)(=O)O)c1` [5-(tert-Butyl)-3-toluenesulfonic acid], the “Est. Conc. of extractable” value in data set [1] was 0.25 µg/mL.
Take `CCCCOCCOCCOC(C)=O` [Butyldiglycol acetate]: the “Est. Conc. of extractable” value in data set [1] is under 0.5 µg/mL.
With `O=S(O)S(=O)O` [Dithionous acid], the “Est. Conc. of extractable” value in data set [2] came to 3.52 µg/mL.
On to `CCCCCCCCCCCCOS(C)(=O)=O` [Dodecyl methanesulfonate], for which the “Est. Conc. of extractable” value in data set [1] is 0.65 µg/mL.
With `CCCCCCCCCCCC(=O)NCCC[N+](C)(C)CC(=O)[O-]` [Lauramidopropyl betaine], the “Est. Conc. of extractable” value in data set [1] was under 0.5 µg/mL.
For the compound `CCCCCCCCCCCC(=O)O` [Lauric acid], the “Est. Conc. of extractable” value in data set [1] is under 0.5 µg/mL.
On to `CCCC(=O)C(O)c1ccccc1` (stereo not shown) [Lot 1-Hydroxy-1-phenyl-2-pentanone], for which the figures for the “Est. Conc. of extractable” value in data set [1] and in data set [2] were 30.47 µg/mL and 0.10 µg/mL, respectively.
Regarding `CCCCCCCCCCCCCC(=O)O` [Myristic acid], in data set [1], the “Est. Conc. of extractable” value was under 0.5 µg/mL.
On to `CCCCCCCC/C=C\CCCCCCCC(N)=O` [Oleamide], for which the “Est. Conc. of extractable” value in data set [1] is under 0.5 µg/mL.
On to `CCCCCCCCCCCCCCCC(N)=O` [Palmitamide], for which the “Est. Conc. of extractable” value in data set [1] is under 0.5 µg/mL.
In the case of `CCCCCCCCCCCCCCCC(=O)O` [Palmitic acid], the “Est. Conc. of extractable” value in data set [1] worked out at 10.74 µg/mL.
On to `CCCCCC[C@@H](O)C/C=C\CCCCCCCC(=O)O` [Ricinoleic acid], for which, in data set [1], the “Est. Conc. of extractable” value was under 0.5 µg/mL.
`CCCCCCCCCCCCCCCCCC(N)=O` [Stearamide]: in data set [1], the “Est. Conc. of extractable” value is under 0.5 µg/mL.
With `OCCOCCOCCO` [Triethylene glycol], the “Est. Conc. of extractable” value in data set [1] and in data set [2] was under 0.5 µg/mL throughout.
With Antimony, the “ICP-MS Results (ppb) Glass vials (2% HNO3)” value in data set [3] (setting [4]) is reported as under 2.5 ppb. Moreover, the “ICP-MS Results (ppb) Stoppers (Reflux pH 3.4)” value in data set [3] (pH 3.4) was under 2.5 ppb.
Arsenic: in data set [3] (setting [4]), the “ICP-MS Results (ppb) Glass vials (2% HNO3)” value is under 2.5 ppb and the “ICP-MS Results (ppb) Stoppers (2% HNO3)” value is listed as under 2.5 ppb. In data set [3] (setting [5]), the “ICP-MS Results (ppb) Stoppers (Reflux pH 3.4)” value was under 2.5 ppb.
Turning to Cadmium, in data set [3] (setting [4]), the “ICP-MS Results (ppb) Glass vials (2% HNO3)” value is on record as under 2.5 ppb and the “ICP-MS Results (ppb) Stoppers (2% HNO3)” value is under 2.5 ppb. Further, the “ICP-MS Results (ppb) Stoppers (Reflux pH 3.4)” value in data set [3] (setting [5]) is on record as under 2.5 ppb.
Take Cobalt: the “ICP-MS Results (ppb) Glass vials (2% HNO3)” value in data set [3] (setting [4]) is recorded as 2.6 ppb. The “ICP-MS Results (ppb) Stoppers (Reflux pH 3.4)” value in data set [3] (pH 3.4) is on record as under 2.5 ppb.
Turning to Copper, the “ICP-MS Results (ppb) Glass vials (2% HNO3)” value in data set [3] (setting [4]) is 3.7 ppb. Further, the “ICP-MS Results (ppb) Stoppers (Reflux pH 3.4)” value in data set [3] (pH 3.4) is given as under 2.5 ppb.
Regarding Laureth-3, the “Est. Conc. of extractable” value in data set [1] was under 0.5 µg/mL.
Laureth-4: the “Est. Conc. of extractable” value in data set [1] was under 0.5 µg/mL.
As to Laureth-9, the “Est. Conc. of extractable” value in data set [1] is under 0.5 µg/mL.
As to Lead, in data set [3] (setting [4]), the “ICP-MS Results (ppb) Glass vials (2% HNO3)” value is listed as under 2.5 ppb and the “ICP-MS Results (ppb) Stoppers (2% HNO3)” value is reported as under 2.5 ppb. Moreover, the “ICP-MS Results (ppb) Stoppers (Reflux pH 3.4)” value in data set [3] (setting [5]) is under 2.5 ppb.
For the compound Lithium, the “ICP-MS Results (ppb) Glass vials (2% HNO3)” value in data set [3] (setting [4]) is 2.6 ppb. Further, the “ICP-MS Results (ppb) Stoppers (Reflux pH 3.4)” value in data set [3] (pH 3.4) is on record as under 2.5 ppb.

The record behind these values is US11571398B1, “Compositions comprising ephedrine or an ephedrine salt and methods of making and using same” (Nexus Pharmaceuticals, Inc., priority 2019, dated 2023).
